This is an account of results in US8912141B2, “Treatment of hepatitis C virus” (Panmed Ltd., priority 2011, dated 2014).

“Also recorded” adds a separate entry of the source. Where two headings read alike, the source gives them in different places.

One data set has as its system various proteases. The data set can be described thus: Protease inhibition. The data set is classed as biochemical.
The test system of another data set is HCV replicon. Briefly: HCV replicon antiviral assay in Huh7 cells, HCV RNA by RT-PCR, 72 hours; combinations analysed by Prichard-Shipman / Bliss independence. The data set is classed as cell-based, hepatitis C virus. How it is done: Huh7 cells were maintained at 37° C., in an atmosphere of 5% CO2, in DMEM (Dulbecco's modified Eagle medium) supplemented with 2 mM L-glutamine, non-essential amino acids (NEAA), 10% fetal bovine serum (FBS) and […] geneticin. Cells were sub-divided at a 1:3 or 1:4 ratio every 2-3 days. 24 hours prior to the assay, Huh7 cells were collected, counted, plated in 96-well plates at 7,500 cells/well in […] standard maintenance medium, and incubated in the conditions above. To initiate the assay, culture medium was removed, and cells were washed once with PBS (phosphate buffer saline). For control compounds only, […] assay medium (DMEM with L-glutamine, NEAA, and 10% FBS) was added.
Test compounds were prepared as a 10× stock in assay medium. Serial dilutions of compounds in assay medium were added in a total volume of […] and the plates were then rocked to mix, and incubated as described above for 72 hours.
HCV RNA levels were measured using TaqMan® RT-PCR. Total cellular RNA was isolated and amplified by using a RealTime HCV assay (m1000™ Automated Sample Preparation System and M2000rt™ instrument for reverse transcription, PCR amplification, and detection/quantitation, Abbott Molecular Inc.), which detects and quantitates HCV genotypes 1-6. The molecular genotyping method targets the 5′-untranslated (UTR) region of the virus genome and is based on an amplification of the viral genome. […] A negative control, low positive control and high positive control were also introduced. Results are reported in International Units per ml (IU/ml), and 1 IU/ml=4.3 copies/ml. […]
The effects of drug combinations were evaluated according to the method described by Prichard & Shipman [Antiviral Res 1990, 14:181-205]. The theoretical additive effect was calculated from the dose-response curves of individual compounds by the equation Z=X+Y(1−X) (an equation referred to in the art as a Bliss independence model), where X and Y represent the inhibition produced by the individual compounds and Z represents the theoretical effect produced by the combination of compounds. […]
Background: Replicon systems follow genome replication, usually without infectious particles.

For data set [1] the following is noted: cited from earlier work.

Turning to `C=C[C@@H]1C[C@]1(NC(=O)[C@@H]1C[C@@H](OC(=O)N2Cc3cccc(F)c3C2)CN1C(=O)[C@@H](NC(=O)OC(C)(C)C)C(C)(C)C)C(=O)NS(=O)(=O)C1CC1` [GNS-227], the protease inhibition activity entry in the data set on various proteases is “exhibit inhibition activity on various proteases; also recorded: exhibit a protease inhibition activity”. Moreover, in the data set with HCV replicon, the “antiviral activity towards HCV” value is “an antiviral activity towards HCV”. The “GNS-227 concentration at which synergy was best achieved” value in the data set on HCV replicon (in combination with HCQ) was “about 3.7 nM”.

For the compound `CCN(CCO)CCCC(C)Nc1ccnc2cc(Cl)ccc12` (centres unmarked) [HCQ, 2-[[4-[(7-chloro-4-quinolinyl)amino]pentyl]ethylamino]ethanol], in the data set with HCV replicon (in combination with GNS-227), the “HCQ concentration at which synergy was best achieved” value is given as “about 6 μM”. Also, the “toxicity relative to chloroquine” value is given as “less toxic” in data set [1] (in vivo) and “one-half as toxic” in data set [1] (in vivo, listed as hydroxychloroquine). Moreover, the “effectiveness relative to chloroquine” value in data set [1] (treating rheumatologic diseases) is “one-half to two-thirds as effective as chloroquine”.

For `CCN(CC)CCCC(C)Nc1ccnc2cc(Cl)ccc12` (centres unmarked) [chloroquine], in data set [1] (in vivo), the “retinotoxicity relative to hydroxychloroquine” value is “much more retinotoxic”.
